From publication PMC4913896, “Bioactivity-Guided Identification of Botanical Inhibitors of Ketohexokinase” (PLoS ONE, 2016)
Like-named read-outs stand apart in the source and are kept apart here.

Molecular target: T1, recombinant human KHKC (Homo sapiens, UniProt P50053)
T1 construct: Profinity eXact fusion tag (N, cleaved yes); made in house; host or cells: E. coli BL21 (DE3), vector pPAL8; cDNA from Hep G2 cells
T1 sequence (P50053 1-298): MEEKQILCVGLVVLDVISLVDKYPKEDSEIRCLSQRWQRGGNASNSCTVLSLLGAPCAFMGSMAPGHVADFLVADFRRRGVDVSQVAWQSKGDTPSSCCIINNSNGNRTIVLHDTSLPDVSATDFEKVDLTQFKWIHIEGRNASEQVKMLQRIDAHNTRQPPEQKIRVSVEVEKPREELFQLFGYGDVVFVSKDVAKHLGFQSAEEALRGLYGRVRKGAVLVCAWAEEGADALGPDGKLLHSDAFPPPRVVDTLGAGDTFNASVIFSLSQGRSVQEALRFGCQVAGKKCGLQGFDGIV
Test: High throughput cell-free recombinant KHKC enzymatic assay (3-step reaction, decrease in NADH at A340nm)
Assay type: biochemical
Details: for inhibition at 50 µM: read-out: KHKC Inhibition (%)
Description: Botanical extracts and phytochemicals were screened for their inhibitory activity using a high throughput cell-free enzymatic assay that utilized recombinant KHKC. KHKC activity was assayed with a 3-step reaction (Fig 2). The Synergy 2 multi-mode microplate reader was used to measure the decrease in NADH at A340nm (BioTek Instruments, Inc., Winooski, VT). For screening of the botanical extracts and phytochemicals, the KHKC enzymatic assay was carried out at 37°C in a total reaction volume of 200 ul containing 50 mM PIPES, 6 mM MgCl2, 100 mM KCl, 5 mM ATP, 2 mM phosphoenolpyruvate, 0.3 mM NADH, 15 U of pyruvate kinase, 15 U of lactate dehydrogenase, and 75 ng KHKC. The botanical extracts (50 μg/mL) and phytochemicals (50 μM) were preincubated in the reaction mixture for 15 min at 37°C. Afterwards, 1 mM fructose was added to the reactions, except for the no fructose controls, and A340nm data were collected every minute for 1 hr. The changes in absorbance were calculated for all samples based on the linear phase of the reactions and adjusted for the no fructose controls. Compared to the fructose only controls (1 mM fructose, no inhibitors), percentage inhibition of KHKC for each sample was calculated. […] For phytochemicals that inhibited KHKC by at least 40%, dose responses were conducted from 0.05 to 100 μM. IC50s against KHKC were calculated. 4-(hydroxymercuri) benzoic acid sodium salt was used as a positive inhibitory control of KHKC [36]. All chemicals were purchased from Sigma-Aldrich (St. Louis, MO).
Recombinant human KHKC proteins: Recombinant human KHKC was produced using the Profinity eXact fusion-tag system (Bio-Rad Laboratories, Hercules, CA). RNA were isolated from Hep G2 cells. CDNA was generated using 1 μg of RNA (iScript cDNA synthesis kit, Bio-Rad Laboratories). The coding sequences of KHKC were amplified using iProof high-fidelity DNA polymerase (Bio-Rad Laboratories). The following primers were used: forward primer = 5’…[…]…3’ and reverse primer = 5’…[…]…3’. The amplicons were ligated into pPAL8, a bacterial expression vector. Sequencing, performed by Beckman Coulter Genomics (Danvers, MA), confirmed that the coding sequences of the KHKC clones were a match to the National Center for Biotechnology Information’s reference sequence. The clones were transformed into BL21 (DE3) chemi-competent expression cells (Bio-Rad Laboratories). E. coli cultures were grown at 37°C in terrific broth media containing 100 μg/mL ampicillin. When the cell density (OD600) reached 0.5–0.7, the expression of KHKC was induced by adding 1 mM isopropyl β-D-1-thiogalactopyranoside. After 3–4 hr incubation, the growth culture was centrifuged at 5,000 g for 10 min at 4°C and the pellet was stored at -80°C.
For protein purification, the bacterial cell pellet was lysed using B-PER in phosphate buffer (Thermo Fisher Scientific Inc., Rockford, IL) containing AEBSF protease inhibitor (EMD Chemicals, Gibbstown, NJ). The lysate was centrifuged at 30,000 x g for 30 min at 4°C to remove cell debris. The supernatant was filtered using a […] syringe filter and then loaded (2.5 mL/min) onto the Bio-Scale Mini Profinity eXact cartridges using the Profinia protein purification instrument (Bio-Rad Laboratories). The column was first washed with 100 mL sodium phosphate, pH 7.0 (10 ml/min, CV = 10) followed by 400 mL sodium phosphate, pH 7.0 (10 ml/min, CV = 15). The protein was eluted with 100 mM sodium phosphate and 100 mM sodium fluoride, pH 7.2 and incubated for 4 hr at 4°C. The tag-less protein was stored in 20% glycerol and frozen at -80°C until use.
GraphPad Prism 5.03 (GraphPad Software, La Jolla, CA) was utilized for the data and statistical analyses. To generate a best fit, an upper concentration (10,000 μg/mL at 100% inhibition) and a lower concentration (0.001 μg/mL at 0% inhibition) were added in order to calculate the IC50s for the inhibition of KHKC and for the inhibition of fructose-induced ATP depletion. […]

[1] = phytochemical library screen, 50 μM, 1 mM fructose
[2] = phytochemicals, dose response 0.05 to 100 μM, read-out: KHKC IC50

Row | Compound | KHKC Inhibition (%) [1] [%] | IC50 [2] [µM] | inhibition at 50 µM [1] [%] | IC50 [µM] | inhibition at 50 µM [%]
1 | 3,4',5,7-THMethoxy3'-O-B-D-Xylopyranoside | 63.3 | 3.5 |  |  | 
2 | COc1cc(OC)c2ccc(=O)oc2c1CC=C(C)C [5,7-Dimethoxy-8-prenylcoumarin] |  | 10.3 | 70.4 |  | 
3 | O=C(O)[C@H]1O[C@@H](Oc2cc(O)c3c(=O)cc(-c4ccc(O)cc4)oc3c2)[C@H](O)[C@@H](O)[C@@H]1O [Apigenin 7-glucuronide] | 53.1 | 16.1 |  |  | 
4 | O=c1cc(-c2ccc(O)cc2)oc2cc(O[C@@H]3O[C@H](CO)[C@@H](O)[C@H](O)[C@H]3O[C@@H]3OC[C@](O)(CO)[C@H]3O)cc(O)c12 [Apiin] |  | 21.5 | 47 |  | 
5 | COc1c(O)cc2c(=O)c3c(O)cc(O)c(CC=C(C)C)c3oc2c1CC=C(C)C [Cratoxyarborenone E] |  | 1 | 61.7 |  | 
6 | CC(C)=CCc1c(O)ccc(C(=O)/C=C/c2ccc(O)cc2)c1O [Isobavachalcone] |  | 5.7 | 44.2 |  | 
7 | CC(C)=CCc1c(-c2ccc(O)cc2O)oc2c(CC=C(C)C)c(O)cc(O)c2c1=O [Mulberrin] | 61.2 | 31.2 |  |  | 
8 | COc1c(O)cc2oc(-c3ccccc3)cc(=O)c2c1O [Oroxylin A] |  | 8.2 | 42.1 |  | 
9 | CC(C)=CCc1c(O)ccc2ccc(=O)oc12 [Osthenol] |  |  |  | 7.8 | 74.1
10 | COc1ccc2ccc(=O)oc2c1CC=C(C)C [Osthole] |  | 0.7 | 93.4 |  | 
11 | Flavaspidic acid AB | 48.7 | 29.5 |  |  | 
12 | Methoxy isobavachalcone | 70.8 | 0.2 |  |  | 
13 | Swietenocoumarin B | 62.5 | 58.4 |  |  | 
14 | α-/γ-Mangostin | 90.4 | 1.5 |  |  | 
